Reference: US9523100B2, “Pesticidal compositions and related methods” (DOW AGROSCIENCES LLC, priority 2013, dated 2016)
Like-named read-outs stand apart in the source and are kept apart here.

Key:
[1] = test system: Sweetpotato Whitefly-Crawler (WF) (Bemisia tabaci) (BEMITA); test: Insecticidal test for Sweetpotato Whitefly-Crawler (WF) in foliar spray assay on cotton plants; assay type: in vivo; conditions: 216 h, read-out: WF 200 ppm, % Control (or Mortality) rating
Method in brief: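 Cotton plants carrying 200–400 whitefly eggs sprayed to run-off on both leaf surfaces at 200 ppm (acetone/0.025% Tween 20), four plants per treatment. After 9 days at about 25 °C, live 3rd–4th instar nymphs counted; Abbott-corrected percent control versus solvent check.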

[2] = test system: Green Peach Aphid (GPA) (Myzus persicae) (MYZUPE); test: Bioassay for Green Peach Aphid (GPA), foliar spray on cabbage seedlings; assay type: in vivo; conditions: 72 h, read-out: GPA 200 ppm, % Control (or Mortality) rating
Method in brief: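 Cabbage seedlings infested with 20-50 GPA (wingless adults and nymphs) one day before spraying to runoff with 200 ppm compound; four pots per treatment. Live aphids counted after three days at ~25° C; percent control by Abbott's correction against solvent-sprayed plants.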

[3] = 200 ppm foliar spray on cotton plants, graded after 9 days, Abbott corrected % control
[4] = 200 ppm foliar spray on cabbage seedlings, graded after three days, Abbott corrected % control

Structure (SMILES)	mortality at 200 ppm [1, 3] [%]	mortality at 200 ppm [2, 4] [%]	mortality at 200 ppm ([1]; foliar) [%]	mortality at 200 ppm ([2]; foliar) [%]
CCN(C(=O)CCN(C)C(=O)CCC(F)(F)F)c1cn(-c2cccnc2)nc1Cl [Compound F94, N-(3-((3-Chloro-1-(pyridin-3-yl)-1H-pyrazol-4-yl)(ethyl)amino)-3-oxopropyl)-4,4,4-trifluoro-N-methylbutanamide]	80 to 100	80 to 100		
CCN(C(=O)Cn1ccccc1=O)c1cn(-c2cccnc2)nc1Cl [Compound F122, N-(3-Chloro-1-(pyridin-3-yl)-1H-pyrazol-4-yl)-N-ethyl-2-(2-oxopyridin-1(2H)-yl)acetamide]	80 to 100	0 to 80		
CCN(C(=O)CCN1CCCCC1=O)c1cn(-c2cccnc2)nc1Cl [Compound F8, N-(3-Chloro-1-(pyridin-3-yl)-1H-pyrazol-4-yl)-N-ethyl-3-(2-oxopiperidin-1-yl)propanamide]	80 to 100	80 to 100		
CCN(C(=O)CC1CCNC1=O)c1cn(-c2cccnc2)nc1Cl (centres unmarked) [FA63]	80 to 100	80 to 100		
CCN(C(=O)CC/C(C)=N\OCCC1CC1(F)F)c1cn(-c2cccnc2)nc1Cl (centres unmarked) [FA49, (Z)-N-(3-Chloro-1-(pyridin-3-yl)-1H-pyrazol-4-yl)-4-((2-(2,2-difluorocyclopropyl)ethoxy)imino)-N-ethylpentanamide]	80 to 100	0 to 80		
CCN(C(=O)CCNC(=O)/C=C/C(F)(F)F)c1cn(-c2cccnc2)nc1Cl [Compound F65, (E)-N-(3-((3-Chloro-1-(pyridin-3-yl)-1H-pyrazol-4-yl)(ethyl)amino)-3-oxopropyl)-4,4,4-trifluorobut-2-enamide]	80 to 100	80 to 100		
CCN(C(=O)CC/C(C)=N/OCCCCC(F)(F)F)c1cn(-c2cccnc2)nc1Cl [FA4, (E/Z)-N-(3-Chloro-1-(pyridin-3-yl)-1H-pyrazol-4-yl)-N-ethyl-4-(((5,5,5-trifluoropentyl)oxy)imino)pentanamide]	80 to 100	0 to 80		
CCN(C(=O)CC/C(C)=N/OCc1ccc(OC(F)(F)F)cc1)c1cn(-c2cccnc2)nc1Cl [FA40, (E/Z)-N-(3-Chloro-1-(pyridin-3-yl)-1H-pyrazol-4-yl)-N-ethyl-4-(((4-(trifluoromethoxy)benzyl)oxy)imino)pentanamide]	80 to 100	0 to 80		
CCN(C(=O)CCl)c1cn(-c2cccnc2)nc1Cl [CA2, 2-Chloro-N-[3-chloro-1-(3-pyridyl)pyrazol-4-yl]-N-ethyl-acetamide]	80 to 100	0 to 80		
CCN(C(=O)C1CCN(C(=O)OC(C)(C)C)CC1)c1cn(-c2cccnc2)nc1Cl [Compound F110, tert-Butyl 44-(3-chloro-1-(pyridin-3-yl)-1H-pyrazol-4-yl)(ethylcarbamoyl) piperidine-1-carboxylate]	80 to 100	80 to 100		
CN(C(=O)CCC(=O)N1CCCCCC1)c1cn(-c2cccnc2)nc1Cl [Compound F27, 4-(Azepan-1-yl)-N-(3-chloro-1-(pyridin-3-yl)-1H-pyrazol-4-yl)-N-methyl-4-oxobutanamide]	80 to 100	0 to 80		
CCN(C(=O)C1CN(C(=O)CCC(F)(F)F)C1)c1cn(-c2cccnc2)nc1Cl [FA15, N-(3-Chloro-1-(pyridin-3-yl)-1H-pyrazol-4-yl)-N-ethyl-1-(4,4,4-trifluorobutanoyl)azetidine-3-carboxamide]	80 to 100	80 to 100		
CN(C(=O)[C@@H]1C=C[C@H](NC(=O)C(F)(F)F)C1)c1cn(-c2cccnc2)nc1Cl [Compound F126, (1S,4R)-N-(3-chloro-1-(pyridin-3-yl)-1H-pyrazol-4-yl)-N-methyl-4-(2,2,2-trifluoroacetamido)cyclopent-2-enecarboxamide]	80 to 100	0 to 80		
CN(CC(=O)N(CC1CC1)c1cn(-c2cccnc2)nc1Cl)C(=O)OC(C)(C)C [Compound F76, tert-Butyl (2-((3-chloro-1-(pyridin-3-yl)-1H-pyrazol-4-yl)(cyclopropylmethyl)amino)-2-oxoethyl) (methyl)carbamate]			0 to 80	0 to 80
CCN(C(=O)CCn1ccc(/C(C)=N/OC(C)C)n1)c1cn(-c2cccnc2)nc1Cl [FA2, (E/Z)-N-(3-Chloro-1-(pyridin-3-yl)-1H-pyrazol-4-yl)-N-ethyl-3-(3-(1-(isopropoxyimino)ethyl)-1H-pyrazol-1-yl)propanamide]	80 to 100	0 to 80		
CN(C(=O)CCC(=O)N1CCCC1)c1cn(-c2cccnc2)nc1Cl [Compound F37, N-(3-Chloro-1-(pyridin-3-yl)-1H-pyrazol-4-yl)-N-methyl-4-oxo-4-(pyrrolidin-1-yl)butanamide]	80 to 100	0 to 80		

Structure (SMILES)	mortality at 200 ppm [1, 3] [%]	mortality at 200 ppm [2, 4] [%]	mortality at 200 ppm ([1]; foliar) [%]	mortality at 200 ppm ([2]; foliar) [%]
CCN(C(=O)CCC(=O)NCc1ccc(F)cc1)c1cn(-c2cccnc2)nc1Cl [Compound F80, N1-(3-Chloro-1-(pyridin-3-yl)-1H-pyrazol-4-yl)-N1-ethyl-N4-(4-fluorobenzyl)succinamide]	80 to 100	0 to 80		
CCN(C(=O)CC/C(C)=N\O)c1cn(-c2cccnc2)nc1Cl [FA46, (Z)-N-(3-Chloro-1-(pyridin-3-yl)-1H-pyrazol-4-yl)-N-ethyl-4-(hydroxyimino)pentanamide]	80 to 100	0 to 80		
CCN1CC(CCC(=O)N(CC)c2cn(-c3cccnc3)nc2Cl)C1=O (centres unmarked) [Compound F103, N-(3-Chloro-1-(pyridin-3-yl)-1H-pyrazol-4-yl)-N-ethyl-3-(1-ethyl-2-oxoazetidin-3-yl)propanamide]	80 to 100	80 to 100		
CCN(C(=O)C1CN(C(=O)C(F)(F)F)C1)c1cn(-c2cccnc2)nc1Cl [FA14, N-(3-Chloro-1-(pyridin-3-yl)-1H-pyrazol-4-yl)-N-ethyl-1-(2,2,2-trifluoroacetyl)azetidine-3-carboxamide]	80 to 100	80 to 100		
CCN(C(=O)C(C)N(C)C(C)=O)c1cn(-c2cccnc2)nc1Cl (centres unmarked) [Compound F96, N-(3-Chloro-1-(pyridin-3-yl)-1H-pyrazol-4-yl)-N-ethyl-2-(N-methylacetamido)propanamide]	80 to 100	80 to 100		
O=C(CCC(=O)N(CC1CC1)c1cn(-c2cccnc2)nc1Cl)N1CCCCC1 [Compound F82, N-(3-Chloro-1-(pyridin-3-yl)-1H-pyrazol-4-yl)-N-(cyclopropylmethyl)-4-oxo-4-(piperidin-1-yl)butanamide]	80 to 100	0 to 80		
CCN(C(=O)C(C)(C)OC(C)=O)c1cn(-c2cccnc2)nc1Cl [FA73, 1-((3-Chloro-1-(pyridin-3-yl)-1H-pyrazol-4-yl)(ethyl)amino)-2-methyl-1-oxopropan-2-ylacetate]	0 to 80	80 to 100		
CCN(C(=O)CC/C(=N/OCCCC(F)(F)F)c1cccs1)c1cn(-c2cccnc2)nc1Cl [FA27, (Z)-N-(3-Chloro-1-(pyridin-3-yl)-1H-pyrazol-4-yl)-N-ethyl-4-(thiophen-2-yl)-4-((4,4,4-trifluorobutoxy)imino)butanamide]	0 to 80	0 to 80		
CCN(C(=O)CNC(=O)CC(F)(F)F)c1cn(-c2cccnc2)nc1Cl [Compound F57, N-(2-((3-Chloro-1-(pyridin-3-yl)-1H-pyrazol-4-yl)(ethyl)amino)-2-oxoethyl)-3,3,3-trifluoropropanamide]	80 to 100	80 to 100		
CCN(C(=O)C1CCN(C(=O)CCC(F)(F)F)C1)c1cn(-c2cccnc2)nc1Cl (centres unmarked) [FA10, N-(3-Chloro-1-(pyridin-3-yl)-1H-pyrazol-4-yl)-N-ethyl-1-(4,4,4-trifluorobutanoyl)pyrrolidine-3-carboxamide]	80 to 100	80 to 100		
CCN(C(=O)CCC(=O)NCCF)c1cn(-c2cccnc2)nc1Cl [Compound F43, N1-(3-Chloro-1-(pyridin-3-yl)-1H-pyrazol-4-yl)-N1-ethyl-N4-(2-fluoroethyl)succinamide]	80 to 100	0 to 80		
CCN1CC(CCCC(=O)N(CC)c2cn(-c3cccnc3)nc2Cl)C1=O (centres unmarked) [Compound F81, N-(3-Chloro-1-(pyridin-3-yl)-1H-pyrazol-4-yl)-N-ethyl-4-(1-ethyl-2-oxoazetidin-3-yl)butanamide]	80 to 100	80 to 100		
CCN(C(=O)CCN(CC(F)F)C(=O)C1(C)CC1(F)F)c1cn(-c2cccnc2)nc1Cl (centres unmarked) [Compound F35, N-(3-((3-Chloro-1-(pyridin-3-yl)-1H-pyrazol-4-yl)(ethyl)amino)-3-oxopropyl)-N-(2,2-difluoroethyl)-2,2-difluoro-1-methylcyclopropane carboxamide]	80 to 100	80 to 100		
CCN(C(=O)C1CCCN(C(=O)CCC#N)C1)c1cn(-c2cccnc2)nc1Cl (centres unmarked) [FA44, N-(3-chloro-1-(pyridin-3-yl)-1H-pyrazol-4-yl)-1-(3-cyanopropanoyl)-N-ethylpiperidine-3-carboxamide]	80 to 100	80 to 100		
CCN(C(=O)C(C)C/C=N/OCCC1CC1(F)F)c1cn(-c2cccnc2)nc1Cl (centres unmarked) [FA60, (E)-N-(3-Chloro-1-(pyridin-3-yl)-1H-pyrazol-4-yl)-4-((2-(2,2-difluorocyclopropyl)ethoxy)imino)-N-ethyl-2-methylbutanamide]	80 to 100	80 to 100		
